# Patent US4499082A, “α-Aminoboronic acid peptides” (E. I. Du Pont de Nemours and Company, priority 1983, dated 1985)
# Experiments:
# Assay type in all cases: biochemical
# [1] = molecular target: porcine pepsin (Sus scrofa, UniProt P00791); test: Inhibition of pepsin; conditions: Conc. 5.0 × 10^-4 M
# Experimental: Pepsin activity was assayed by a procedure substantially similar to that described by Rich, et al., Biochem. Pharmac. 29:2205 (1980). Substrate, […].2 trifluoroacetate, and porcine pepsin were obtained from commercial sources. Assay solutions, in a volume of 2.00 mL, contained 2.0×10^-4 M substrate in 0.040M sodium formate buffer, pH 4.0, and 0.050 mL of inhibitor solutions in dimethylsulfoxide. Assays were initiated by addition of 0.020 mL of pepsin (0.10 mg/mL), and hydrolysis of substrate was monitored by measuring the increase in absorbance at 310 nm on a spectrophotometer.
# [2] = molecular target: T1, thermolysin (Bacillus thermoproteolyticus, UniProt P00800); test: Inhibition of thermolysin; conditions: Conc. 5.0 × 10^-4 M
# T1 construct: purchased
# T1 sequence (P00800 233-548): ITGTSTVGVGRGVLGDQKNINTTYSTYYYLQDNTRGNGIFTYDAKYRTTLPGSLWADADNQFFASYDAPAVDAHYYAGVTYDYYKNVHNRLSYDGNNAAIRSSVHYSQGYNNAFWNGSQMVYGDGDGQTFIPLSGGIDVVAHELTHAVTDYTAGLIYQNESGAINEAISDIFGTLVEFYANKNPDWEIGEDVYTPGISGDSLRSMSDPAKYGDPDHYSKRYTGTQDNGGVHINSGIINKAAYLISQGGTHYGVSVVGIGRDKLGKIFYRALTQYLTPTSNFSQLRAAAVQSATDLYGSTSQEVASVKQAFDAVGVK
# Experimental: The metalloenzyme thermolysin was assayed by a procedure substantially similar to that described by Feder et al., Biochemistry 9:2784 (1970). Substrate, furylacryloyl-glycyl-leucinamide, and thermolysin were obtained from commercial sources. Assay solutions consisted of furylacryloyl-glycyl-leucinamide (0.100 mL, 8.0×10^-3 M in N,N-dimethylformamide) and 1.90 mL of 0.50M Tris buffer, pH 7.5, containing 0.10M NaCl and 0.010M CaCl2. Either 0.100 mL of dimethylsulfoxide or 0.100 mL of dimethylsulfoxide containing inhibitor was added and the reaction was initiated by the addition of 0.020 mL of thermolysin (1.0 mg/mL). The rate of hydrolysis was monitored by measuring the decrease in absorbance at 345 nm.
# [3] = molecular target: Porcine pancreatic elastase (Sus scrofa, UniProt P00772); test: Inhibition of pancreatic elastase
# Experimental: Porcine pancreatic elastase (9.8 U/mg.) was obtained from commercial sources. […] Reactions were initiated by addition of 0.5 μg of elastase in 0.020 mL of 0.020M sodium acetate buffer, pH 6.0, and hydrolysis of substrate was monitored spectrophotometrically at 405 nm at 25° C. Assay results are set forth in Table 4, below, expressed as percentages of activity of control mixtures to which no inhibitor was added: […]
# [4] = molecular target: T2, neutrophil elastase (Homo sapiens, UniProt P08246); test: Inhibition of neutrophil elastase, additional peptide inhibitors preincubated in phosphate buffer (Table 3); parameters: Neutrophil elastase was prepared by the procedure described by Baugh. et al; from tissue
# T2 sequence (P08246 30-267): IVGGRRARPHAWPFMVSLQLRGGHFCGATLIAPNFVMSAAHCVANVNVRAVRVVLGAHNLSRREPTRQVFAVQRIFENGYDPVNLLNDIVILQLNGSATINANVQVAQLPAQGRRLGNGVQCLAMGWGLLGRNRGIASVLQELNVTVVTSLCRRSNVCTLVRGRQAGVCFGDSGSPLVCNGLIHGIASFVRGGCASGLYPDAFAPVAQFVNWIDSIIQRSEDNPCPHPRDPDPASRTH
# Experimental: Additional peptide inhibitors were evaluated by a procedure similar to that described above. Stock solutions of inhibitors (1.00 mM) were prepared in dimethylsulfoxide and compounds were diluted to 0.10 mM with […], pH 7.5, yielding the free boronic acid. After incubation for one hour at about 23°, inhibitors were added to assay solutions (2.00 mL) consisting of […] MeOSuc-Ala-AlaProVal-p-nitroanilide in 0.10M Hepes buffer, pH 7.5, containing 0.50M NaCl. Assays were initiated by addition of 0.50 μg neutrophil elastase. Control assays without inhibitor indicated an initial velocity of 0.0195 min^-1. The value "k" in Table 3, below, is an estimate of the first order rate constant for time-dependent inhibition, as described above for MeOSuc-AlaAlaPro-Boroval-OH (Table 1).
# [5] = molecular target: T3, α-chymotrypsin (Bos taurus, UniProt P00766); test: Titration of α-chymotrypsin
# T3 construct: purchased
# Experimental: In these experiments, α-chymotrypsin, obtained from commercial sources, was standardized by titration with various concentrations of MeOSuc-AlaAlaPro-Borophe-diethanolamine. In each case, enzyme was incubated with inhibitor for 5 minutes at 23°, in 0.01M Hepes buffer, pH 7.5, containing 0.50M NaCl and 10% dimethylsulfoxide. Aliquots were then removed and assayed for enzyme activity.
# Sequence of porcine pepsin (P00791 60-385): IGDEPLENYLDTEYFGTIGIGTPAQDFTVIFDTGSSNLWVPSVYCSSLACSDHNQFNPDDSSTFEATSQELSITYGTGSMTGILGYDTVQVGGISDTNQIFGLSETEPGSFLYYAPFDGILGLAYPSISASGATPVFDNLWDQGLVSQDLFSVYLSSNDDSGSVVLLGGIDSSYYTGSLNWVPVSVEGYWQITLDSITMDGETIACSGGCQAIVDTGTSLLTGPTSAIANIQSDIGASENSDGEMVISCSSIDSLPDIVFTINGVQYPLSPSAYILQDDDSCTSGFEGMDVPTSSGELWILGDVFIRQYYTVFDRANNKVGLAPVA
# Sequence of Porcine pancreatic elastase (P00772 27-266): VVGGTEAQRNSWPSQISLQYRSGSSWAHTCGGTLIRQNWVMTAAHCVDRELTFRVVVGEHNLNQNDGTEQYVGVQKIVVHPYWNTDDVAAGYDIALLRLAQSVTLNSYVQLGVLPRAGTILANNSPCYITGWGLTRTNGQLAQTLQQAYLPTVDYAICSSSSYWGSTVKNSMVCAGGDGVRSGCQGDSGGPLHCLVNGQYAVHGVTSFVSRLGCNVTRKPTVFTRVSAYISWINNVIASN
compound,measurement,setting,value
"CC(NC(=O)C(C)NC(=O)OC(C)(C)C)B1OCCNCCO1 (stereo not drawn) [Boc--Ala--Boroala--diethanolamine, Boc-Ala-Boroala-diethanolamine]",% Activity,[1],85%
same,% Activity,[2],99%
same,Activity % of Control,"[3]; inhibitor 5.0 × 10^5 nM, 1.0 min, time dependency not observed",67 % of Control
"CC(NC(=O)C(C)NC(=O)OC(C)(C)C)B1OC(C)(C)C(C)(C)O1 (stereo not drawn) [Boc--Ala--Boroala--pinacol, Boc-Ala-Boroala-pinacol]",% Activity,[1],90%
same,% Activity,[2],102%
CC(C)C(NC(=O)C1CCCN1C(=O)C(Cc1ccccc1)NC(=O)OC(C)(C)C)B(O)O [Boc--D-Phe--Pro--Boroval--OH],% Initial Activity,[4]; Conc. 2.0 × 10^-7 M,54%
same,"k, first order rate constant for time-dependent inhibition",[4]; Conc. 2.0 × 10^-7 M,0.35 min⁻¹
"CC(C)CC(NC(=O)CNC(=O)OC(C)(C)C)B1OCCNCCO1 (stereo not drawn) [Boc--Gly--Boroleu--diethanolamine, Boc-Gly-Boroleu-diethanolamine]",% Activity,[1],90%
"CC(C)CC(NC(=O)CNC(=O)OC(C)(C)C)B1OC(C)(C)C(C)(C)O1 (stereo not drawn) [Boc--Gly--Boroleu--pinacol, Boc-Gly-Boroleu-pinacol]",% Activity,[1],87%
"CC(C)CC(NC(=O)CNC(=O)C(Cc1ccccc1)NC(=O)OC(C)(C)C)B1OCCNCCO1 (stereo not shown) [Boc--Phe--Gly--Boroleu--diethanolamine, Boc-PheGly-Boroleu-diethanolamine]",% Activity,[1],71%
"CC(C)CC(NC(=O)CNC(=O)C(Cc1ccccc1)NC(=O)OC(C)(C)C)B1OC(C)(C)C(C)(C)O1 (stereo not shown) [Boc--Phe--Gly--Boroleu--pinacol, Boc-PheGly-Boroleu-pinacol]",% Activity,[1],68%
"CC(C)C[C@H](NC(=O)CNC(=O)[C@@H](N)Cc1ccccc1)B1OC(C)(C)C(C)(C)O1.O=C(O)C(F)(F)F [H--Phe--Gly--Boroleu--pinacol, H-PheGly-Boroleu-pinacol.trifluoroacetate]",% Activity,[1],69%
CC(C)C(NC(=O)C(CCC(=O)O)NC(=O)CNC(=O)C(N)Cc1ccccc1)B(O)O (stereo not shown) [H--Phe--Gly--Glu--Boroval--OH],% Initial Activity,[4]; Conc. 2.0 × 10^-6 M,54%
CC(C)C(NC(=O)C(CO)NC(=O)CNC(=O)C(N)Cc1ccccc1)B(O)O (stereo not shown) [H--Phe--Gly--Ser--Boroval--OH],% Initial Activity,[4]; Conc. 1.0 × 10^-6 M,75%
CCC(C)C(NC(=O)C1CCCN1C(=O)C(C)NC(=O)C(C)NC(=O)CCC(=O)OC)B(O)O (stereo not shown) [MeOSuc--Ala--Ala--Pro--Boroile--OH],% Initial Activity,[4]; Conc. 1.0 × 10^-7 M,60%
same,"k, first order rate constant for time-dependent inhibition",[4]; Conc. 1.0 × 10^-7 M,0.28 min⁻¹
"COC(=O)CCC(=O)NC(CCCCNC(=O)OCc1ccccc1)C(=O)NC(C)C(=O)N1CCCC1C(=O)NC(B(O)O)C(C)C (stereo not shown) [MeOSuc--Lys(Z)--Ala--Pro--Boroval--OH, MeOSuc--Lys(Z)--AlaPro--Boroval--OH]",% Initial Activity,[4]; Conc. 5.0 × 10^-8 M,59%
same,"k, first order rate constant for time-dependent inhibition",[4]; Conc. 5.0 × 10^-8 M,0.54 min⁻¹
COC(=O)CCC(=O)NC(Cc1ccccc1)C(=O)NCC(=O)NC(CCC(=O)O)C(=O)NC(B(O)O)C(C)C (stereo not shown) [MeOSuc--Phe--Gly--Glu--Boroval--OH],% Initial Activity,[4]; Conc. 1.0 × 10^-6 M,52%
same,"k, first order rate constant for time-dependent inhibition",[4]; Conc. 1.0 × 10^-6 M,0.18 min⁻¹
COC(=O)CCC(=O)N[C@@H](Cc1ccccc1)C(=O)NCC(=O)N[C@@H](CO)C(=O)NC(B(O)O)C(C)C (stereo partly shown) [MeOSuc--Phe--Gly--Ser--Boroval--OH],% Initial Activity,[4]; Conc. 5.0 × 10^-7 M,78%
same,"k, first order rate constant for time-dependent inhibition",[4]; Conc. 5.0 × 10^-7 M,0.26 min⁻¹
COC(=O)CCC(=O)N[C@@H](C)C(=O)N[C@@H](C)C(=O)N1CCC[C@H]1C(=O)NC(C)B1OCCNCCO1 (stereo partly shown) [MeOSuc-AlaAlaPro-Boroala-diethanolamine],"capacity for inhibition of pancreatic elastase, crystalline versus amorphous sample",[3]; crystalline sample relative to amorphous sample of Example 9,at least 5 fold
COC(=O)CCC(=O)NC(C)C(=O)NC(C)C(=O)N1CCCC1C(=O)NC(Cc1ccccc1)B1OCCNCCO1 (stereo not shown) [MeOSuc-AlaAlaPro-Borophe-diethanolamine],% Activity,"[5]; α-chymotrypsin 3 μg/mL, inhibitor 25 nM",68.2%
same,% Activity,"[5]; α-chymotrypsin 3 μg/mL, inhibitor 50 nM",52.3%
same,% Activity,"[5]; α-chymotrypsin 3 μg/mL, inhibitor 75 nM",31.8%
same,% Activity,"[5]; α-chymotrypsin 3 μg/mL, inhibitor 100 nM",18.2%
same,% Activity,"[5]; α-chymotrypsin 15 μg/mL, inhibitor 50 nM",93.8%
same,% Activity,"[5]; α-chymotrypsin 15 μg/mL, inhibitor 100 nM",80.4%
same,% Activity,"[5]; α-chymotrypsin 15 μg/mL, inhibitor 200 nM",65.1%
same,% Activity,"[5]; α-chymotrypsin 15 μg/mL, inhibitor 300 nM",47.9%
same,% Activity,"[5]; α-chymotrypsin 15 μg/mL, inhibitor 400 nM",31.6%
same,% Activity,"[5]; α-chymotrypsin 15 μg/mL, inhibitor 500 nM",15.3%
CC(C)C(NC(=O)C(CCC(=O)OCc1ccccc1)NC(=O)CNC(=O)C(Cc1ccccc1)NC(=O)OCc1ccccc1)B(O)O (stereo not shown) [Z--Phe--Gly--Glu(OBzl)--Boroval--OH],% Initial Activity,[4]; Conc. 1.0 × 10^-7 M,61%
same,"k, first order rate constant for time-dependent inhibition",[4]; Conc. 1.0 × 10^-7 M,0.20 min⁻¹
CC(C)CC(NC(=O)CNC(=O)C(Cc1ccccc1)NC(=O)OCc1ccccc1)C(=O)NC(B(O)O)C(C)C (stereo not shown) [Z--Phe--Gly--Leu--Boroval--OH],% Initial Activity,[4]; Conc. 2.0 × 10^-7 M,62%
same,"k, first order rate constant for time-dependent inhibition",[4]; Conc. 2.0 × 10^-7 M,0.26 min⁻¹
CC(C)C(NC(=O)C(CCCCNC(=O)OC(C)(C)C)NC(=O)CNC(=O)C(Cc1ccccc1)NC(=O)OCc1ccccc1)B(O)O (stereo not shown) [Z--Phe--Gly--Lys(Boc)--Boroval--OH],% Initial Activity,[4]; Conc. 2.0 × 10^-7 M,55%
same,"k, first order rate constant for time-dependent inhibition",[4]; Conc. 2.0 × 10^-7 M,0.37 min⁻¹
CC(C)C(NC(=O)C(CCCCN)NC(=O)CNC(=O)C(Cc1ccccc1)NC(=O)OCc1ccccc1)B(O)O (stereo not shown) [Z--Phe--Gly--Lys--Boroval--OH],% Initial Activity,[4]; Conc. 2.5 × 10^-7 M,67%
same,"k, first order rate constant for time-dependent inhibition",[4]; Conc. 2.5 × 10^-7 M,0.28 min⁻¹
CC(C)C(NC(=O)C(Cc1ccccc1)NC(=O)CNC(=O)C(Cc1ccccc1)NC(=O)OCc1ccccc1)B(O)O (stereo not shown) [Z--Phe--Gly--Phe--Boroval--OH],% Initial Activity,[4]; Conc. 2.0 × 10^-7 M,47%
same,"k, first order rate constant for time-dependent inhibition",[4]; Conc. 2.0 × 10^-7 M,0.18 min⁻¹
CC(C)C(NC(=O)C(COCc1ccccc1)NC(=O)CNC(=O)C(Cc1ccccc1)NC(=O)OCc1ccccc1)B(O)O (stereo not shown) [Z--Phe--Gly--Ser(OBzl)--Boroval--OH],% Initial Activity,[4]; Conc. 1.25 × 10^-7 M,66%
same,"k, first order rate constant for time-dependent inhibition",[4]; Conc. 1.25 × 10^-7 M,0.17 min⁻¹
CC(NC(=O)C1CCCN1C(=O)C(Cc1ccccc1)NC(=O)OCc1ccccc1)C(=O)NC(B(O)O)C(C)C (stereo not shown) [Z--Phe--Pro--Ala--Boroval--OH],% Initial Activity,[4]; Conc. 4.0 × 10^-6 M,51%
